Test results published in US9827313B2, “Self-assembled pharmaceutical composition for photodynamic therapy” (SNU R&DB FOUNDATION, priority 2014, dated 2017).

What was measured:
[1] = tested on: heterogeneous CT26 tumors; test: In vivo PDT in heterogeneous drug-resistant CT26 tumors; set-up: species or system BALB/c nude mice; conditions: heterogeneous CT26 tumors after PDT
Method: For histology analysis, tumor tissues from control and treated mice were fixed in 10% neutral buffered formalin and frozen sectioned into 5 micron thick slices, stained with hematoxylin & eosin (H&E) and terminal deoxynucleotidyl transferase dUTP nick-end labeling (TUNEL), and were examined by a digital microscope (Leica QWin) and a confocal laser scanning microscope (LSM 510 Meta; Zeiss, Germany).
For in vitro PDT, HCT116 cells (5×10^4/well) were incubated with the materials described above. Photosensitization experiments were then performed by irradiating the cells with a 670-nm laser source (Institute of Electronics) for 2 min. The power at the level of the cells was fixed at 5 mW/cm^2. Cell viability was assessed using the MTT assay. Absorbance intensity was measured at 595 nm using a microplate reader (Bio-Tek, VT, USA). A parallel set of control cells was also used in which cells incubated with the respective materials were not exposed to laser irradiation. […] The tumor size was measured 3 times a week after the first PDT treatment by using a Vernier caliper, and tumor volumes were calculated from width (a) and length (b) measurements (V=a^2×b/2, where a≦b). All mice were killed when the tumor measured 1,000 mm^3, at the first sign of suffering, or between 15 and 21 day post-transplantation.

HCT116 cancer cells = test: pH-dependent cellular uptake (flow cytometry, fluorescence imaging); type: cell-based, human; conditions: HCT116, pH 6.8 vs pH 7.4
Method: HCT116 cells were exposed to PMNs, InS-NPs and Ce6 at different pHs to verify their cellular uptake respectively. The cells were incubated for 2 h, washed, harvested, and re-suspended with DPBS. In vitro cellular uptake was quantified using a flow cytometer (Beckman, San Jose, Calif., USA). For each sample 10,000 cells (gated events) were counted, and free Ce6 fluorescence was detected with logarithmic settings (FL4; λem=670 nm). Cells were counted as positive if their fluorescence (FL4) was higher than that of cells from an untreated cell suspension. Each experiment was analyzed statistically using the CXP Analysis Program.
The tumor cellular uptake of PMNs was monitored at different pH conditions (pH 7.4 and 6.8) using a KODAK In vivo Image Station (Image Station 4000 MM; Kodak, New Haven, Conn., USA) and a flow cytometer (Beckman, San Jose, Calif., USA). HCT116 cells (1×10^5 cells/mL) were incubated with each sample for 2 h in RPMI-1640 medium (pH 7.4 or 6.8, with 1% penicillin-streptomycin) at 37° C. and then analyzed. To ameliorate photobleaching during microscope observation, a drop of anti-fade mounting solution (5% N-propyl gallate, 47.5% glycerol, and 47.5% Tris-HCl, pH 8.4) was added to the cells.

chlorin E6 [Ce6]
damage to tumor tissue cells, microvasculature and fibroblasts (H&E, TUNEL) [1]: no obvious damage
cellular uptake, pH dependence (HCT116 cancer cells): not affected by changes in pH
